Entries after “also recorded” stand apart in the source; their conditions may differ.
Legend:
[1] = pH assessment and visual compatibility of first biocide with AMA-324 in polymer solution; assay type: physicochemical; settings: for pH end: AMA-324 plus first biocide mixed 30 minutes, AMA-324 alone stirred 40 minutes; for pH after addition of first biocide: polymer solution with AMA-324 100 ppm plus first biocide 100 ppm (active), DBNPA 50 ppm; for Observations on adjusted pH solution: polymer solution with AMA-324 plus first biocide, after pH adjustment, visual appearance
Method: Seven standard polymer solutions were prepared by preparing a commercially-available polyacrylamide polymer using standard methods. The polymer was added to artificial seawater formulation (approximately 27° C., with the pH adjusted to 6.5 and buffered accordingly) and the solution was mixed utilizing a magnetic stirrer to obtain 200 mL of a 300 ppm (active) polymer solution. After mixing, the initial pH of each polymer solution was measured and recorded. The pH was measured using a calibrated bench top pH meter.
After the initial pH reading, 1 mL of the AMA-324 stock solution was added to 200 mL of the polymer solution to provide 100 ppm (active) of the biocide, and mixed for 10 minutes. The pH of the solution with the AMA-324 was then measured and recorded.
Following pH measurement of the polymer solutions containing AMA-324, 1 mL of a first biocide component stock solution (as described in Table 1) was added to each polymer mixture. The concentration of the biocide stock solutions were prepared to provide 100 ppm (active) in the polymer solution, except for DBNPA which was evaluated at 50 ppm (active). The polymer solutions with the AMA-324 and the first biocide components were mixed for 30 minutes, after which the pH was again measured.
Finally, one control experiment was performed with only the addition of AMA-324 to the polymer solution, stirred for 40 minutes with no other biocide addition.

SRB = assay: Planktonic biocide efficacy, MPN enumeration, SRB; assay type: cell-based; settings: FIG. 8 versus FIG. 14

Row | Molecule | pH end [1] | pH after addition of first biocide [1] | Observations on adjusted pH solution [1] | Synergistic effect of dual biocide system with AMA-324 (SRB) | Observations on adjusted pH solution ([1]; listed as ADBAC Quat)
1 | N#CC(Br)(Br)C(N)=O [DBNPA, 2,2-dibromo-3-nitrilopropionamide] | 8.44 | 8.04 | some turbidity; also recorded: cloudy | – | –
2 | O=CCCCC=O [GLUT, Glutaraldehyde] | 9.12 | 9.29 | clear | synergistic effect | –
3 | C12-16-alkyl dimethyl benzyl ammonium chloride [ADBAC quat] | 9.18 | 9.57 | cloudy | – | some turbidity
4 | tetrakis(hydroxymethyl) phosphonium sulfate [THPS] | 7.13 | 6.8 | clear | synergistic effect | –

Reference: patent US20140303045A1, “Biocidal Systems and Methods of Use” (Kemira Oyj, priority 2013, published 2014)
